Converted amounts (≈) assume the structure as drawn.
The compounds below were run on MRSA 43300 (assay: Antibacterial activity, NCCLS dilution method (Table 9)). Conditions: Staphylococcus aureus, MRSA, MRSA 43300; dilution method; labels marked a tested as a mixture of diastereomers; read-out: MRSA 43300 MIC.
Assay type: cell-based, S. aureus
Text: NCCLS standards for antimicrobial susceptibility testing using the dilution method were followed. See: Performance Standards for Antimicrobial Susceptibility Testing; Fourteenth Informational Supplement. NCCLS Document M100-S14 (ISBN 1-56238-516-X), 2004. NCCLS, 940 West Valley Road, Suite 1400, Wayne, Pa. 19087-1898 USA, 2004; Methods for Dilution Antimicrobial Susceptibility Tests for Bacteria that Grow Aerobically; Approved Standard—Sixth Edition. NCCLS document M7-A6 (IBSBN 1-56238-486-4), NCCLS, 940 West Valley Road, Suite 1400, Wayne, Pa. 19087-1898 USA, 2003, which are hereby incorporated by reference in their entirety.

| Structure (SMILES) | MIC [µg/mL] |
| --- | --- |
| CO[C@@H]1[C@@H](O)[C@@H](OC)C(NC2=CC(=O)c3c(cc4c(c3O)C(=O)[C@]3(OC)[C@H](O)Cc5cc(C)c(C(=O)NCCO)c(O)c5[C@]3(O)C4=O)C2=O)O[C@H]1C (mixture of isomers) [Example 24, (6R,6aS,14aR)-1,6,8,14a-Tetrahydroxy-11-((3R,4R,5R,6S)-4-hydroxy-3,5-dimethoxy-6-methyltetrahydro-2H-pyran-2-ylamino)-N-(2-hydroxyethyl)-6a-methoxy-3-methyl-7,9,12,14-tetraoxo-5,6,6a,7,9,12,14,14a-octahydrobenzo[a]tetracene-2-carboxamide] | 32 (≈ 44 µM) |
| COC(=O)c1c(C)cc2c(c1OC)[C@]1(O)C(=O)c3cc4c(c(OC)c3C(=O)[C@]1(OC)[C@H](O)C2)C(=O)C=C(NC1O[C@@H](C)[C@H](OC)[C@@H](O)[C@H]1OC)C4=O (mixture of isomers) [Example 5, (6R,6aS,14aR)-Methyl 6,14a-dihydroxy-11-((3R,4R,5R,6S)-4-hydroxy-3,5-dimethoxy-6-methyltetrahydro-2H-pyran-2-ylamino)-1,6a,8-trimethoxy-3-methyl-7,9,12,14-tetraoxo-5,6,6a,7,9,12,14,14a-octahydrobenzo[a]tetracene-2-carboxylate] | 2 (≈ 2.76 µM) |
| COC(=O)c1c(C)cc2c(c1OCC(=O)OCc1ccccc1)[C@]1(O)C(=O)c3cc4c(c(O)c3C(=O)[C@]1(OC)[C@H](O)C2)C(=O)C=C(N[C@H]1O[C@@H](C)[C@H](OC)[C@@H](O)[C@H]1OC)C4=O [Example 8, (6R,6aS,14aR)-Methyl 1-(2-(benzyloxy)-2-oxoethoxy)-6,8,14a-trihydroxy-11-((2S,3R,4R,5R,6S)-4-hydroxy-3,5-dimethoxy-6-methyltetrahydro-2H-pyran-2-ylamino)-6a-methoxy-3-methyl-7,9,12,14-tetraoxo-5,6,6a,7,9,12,14,14a-octahydrobenzo[a]tetracene-2-carboxylate] | 1 (≈ 1.18 µM) |
| CO[C@@H]1[C@@H](O)[C@@H](OC)C(NC2=CC(=O)c3c(cc4c(c3O)C(=O)[C@]3(OC)[C@H](O)Cc5cc(C)c(C(=O)NC6CCCCC6)c(O)c5[C@]3(O)C4=O)C2=O)O[C@H]1C (mixture of isomers) [Example 18, (6R,6aS,14aR)—N-Cyclohexyl-1,6,8,14a-tetrahydroxy-11-((3R,4R,5R,6S)-4-hydroxy-3,5-dimethoxy-6-methyltetrahydro-2H-pyran-2-ylamino)-6a-methoxy-3-methyl-7,9,12,14-tetraoxo-5,6,6a,7,9,12,14,14a-octahydrobenzo[a]tetracene-2-carboxamide] | 2 (≈ 2.62 µM) |
| CO[C@@H]1[C@@H](O)[C@@H](OC)[C@@H](NC2=CC(=O)c3c(cc4c(c3O)C(=O)[C@]3(OC)[C@H](O)Cc5cc(C)c(C(N)=O)c(O)c5[C@]3(O)C4=O)C2=O)O[C@H]1C [Example 20, (6R,6aS,14aR)-1,6,8,14a-Tetrahydroxy-11-((2S,3R,4R,5R,6S)-4-hydroxy-3,5-dimethoxy-6-methyltetrahydro-2H-pyran-2-ylamino)-6a-methoxy-3-methyl-7,9,12,14-tetraoxo-5,6,6a,7,9,12,14,14a-octahydrobenzo[a]tetracene-2-carboxamide] | 2 (≈ 2.93 µM) |
| COC(=O)c1c(C)c(Br)c2c(c1O)[C@]1(O)C(=O)c3cc4c(c(O)c3C(=O)[C@]1(OC)[C@H](O)C2)C(=O)C=C(N[C@H]1O[C@@H](C)[C@H](OC)[C@@H](O)[C@H]1OC)C4=O [Example 38, (6R,6aS,14aR)-Methyl 4-bromo-1,6,8,14a-tetrahydroxy-11-((2S,3R,4R,5R,6S)-4-hydroxy-3,5-dimethoxy-6-methyltetrahydro-2H-pyran-2-ylamino)-6a-methoxy-3-methyl-7,9,12,14-tetraoxo-5,6,6a,7,9,12,14,14a-octahydrobenzo[a]tetracene-2-carboxylate] | 1 (≈ 1.29 µM) |
| CO/N=C1/[C@@H](OC)[C@H](C)O[C@H](NC2=CC(=O)c3c(cc4c(c3O)C(=O)[C@]3(OC)[C@H](O)Cc5cc(C)c(C(=O)OC)c(O)c5[C@]3(O)C4=O)C2=O)[C@@H]1OC [Example 50, (6R,6aS,14aR)-Methyl 11-((2S,3R,5R,6S,Z)-3,5-dimethoxy-4-(methoxyimino)-6-methyltetrahydro-2H-pyran-2-ylamino)-1,6,8,14a-tetrahydroxy-6a-methoxy-3-methyl-7,9,12,14-tetraoxo-5,6,6a,7,9,12,14,14a-octahydrobenzo[a]tetracene-2-carboxylate] | 0.25 (≈ 0.345 µM) |
| COC(=O)c1c(C)cc2c(c1OC)[C@]1(O)C(=O)c3cc4c(c(O)c3C(=O)[C@]1(OC)[C@H](O)C2)C(=O)C=C(N[C@H]1O[C@@H](C)[C@H](OC)[C@@H](O)[C@H]1OC)C4=O [Example 4, (6R,6aS,14aR)-Methyl 6,8,14a-trihydroxy-11-((2S,3R,4R,5R,6S)-4-hydroxy-3,5-dimethoxy-6-methyltetrahydro-2H-pyran-2-ylamino)-1,6a-dimethoxy-3-methyl-7,9,12,14-tetraoxo-5,6,6a,7,9,12,14,14a-octahydrobenzo[a]tetracene-2-carboxylate] | 0.06 to 0.12 (≈ 0.0843 to 0.169 µM) |
| CO[C@@H]1[C@@H](O)[C@@H](OC)C(NC2=CC(=O)c3c(cc4c(c3O)C(=O)[C@]3(OC)[C@H](O)Cc5cc(C)c(C(=O)N6CCCC6)c(O)c5[C@]3(O)C4=O)C2=O)O[C@H]1C (mixture of isomers) [Example 22, (6R,6aS,14aR)-1,6,8,14a-Tetrahydroxy-11-((3R,4R,5R,6S)-4-hydroxy-3,5-dimethoxy-6-methyltetrahydro-2H-pyran-2-ylamino)-6a-methoxy-3-methyl-2-(pyrrolidine-1-carbonyl)-6,6a-dihydrobenzo[a]tetracene-7,9,12,14(5H,14aH)-tetraone] | 1 (≈ 1.36 µM) |
| COCCC/N=C1\C=C(N[C@H]2O[C@@H](C)[C@H](OC)[C@@H](O)[C@H]2OC)C(=O)c2cc3c(c(O)c21)C(=O)[C@]1(OC)[C@H](O)Cc2cc(C)c(C(=O)OC)c(O)c2[C@]1(O)C3=O [Example 47, (6R,6aS,14aR,E)-Methyl 1,6,8,14a-tetrahydroxy-11-((2S,3R,4R,5R,6S)-4-hydroxy-3,5-dimethoxy-6-methyltetrahydro-2H-pyran-2-ylamino)-6a-methoxy-9-(3-methoxypropylimino)-3-methyl-7,12,14-trioxo-5,6,6a,7,9,12,14,14a-octahydrobenzo[a]tetracene-2-carboxylate] | 1 to 2 (≈ 1.3 to 2.6 µM) |
| CO[C@@H]1[C@@H](O)[C@@H](OC)C(NC2=CC(=O)c3c(cc4c(c3O)C(=O)[C@]3(OC)[C@H](O)Cc5cc(C)c(C(=O)NC(C)C)c(O)c5[C@]3(O)C4=O)C2=O)O[C@H]1C (mixture of isomers) [Example 31, (6R,6aS,14aR)-1,6,8,14a-Tetrahydroxy-11-((3R,4R,5R,6S)-4-hydroxy-3,5-dimethoxy-6-methyltetrahydro-2H-pyran-2-ylamino)-N-isopropyl-6a-methoxy-3-methyl-7,9,12,14-tetraoxo-5,6,6a,7,9,12,14,14a-octahydrobenzo[a]tetracene-2-carboxamide] | 2 (≈ 2.76 µM) |
| CO[C@@H]1[C@@H](O)[C@@H](OC)[C@@H](NC2=CC(=O)c3c(cc4c(c3O)C(=O)[C@]3(OC)[C@H](O)Cc5cc(C)c(C(=O)O)c(O)c5[C@]3(O)C4=O)C2=O)O[C@H]1C [Example 13, (6R,6aS,14aR)-1,6,8,14a-Tetrahydroxy-11-((2S,3R,4R,5R,6S)-4-hydroxy-3,5-dimethoxy-6-methyltetrahydro-2H-pyran-2-ylamino)-6a-methoxy-3-methyl-7,9,12,14-tetraoxo-5,6,6a,7,9,12,14,14a-octahydrobenzo[a]tetracene-2-carboxylic acid] | 32 (≈ 46.8 µM) |
| COC(=O)c1c(C)cc2c(c1O)[C@]1(O)C(=O)c3cc4c(c(O)c3C(=O)[C@]1(OC)[C@H](O)C2)C(=O)C=C(N[C@H]1O[C@@H](C)[C@H](OC)[C@@H](O[C@@H]2O[C@H](CO)[C@@H](O)[C@H](O)[C@H]2O)[C@H]1OC)C4=O [Example 54, (6R,6aS,14aR)-Methyl 11-((2S,3R,4R,5S,6S)-3,5-dimethoxy-6-methyl-4-((2S,3R,4S,5S,6R)-3,4,5-trihydroxy-6-(hydroxymethyl)tetrahydro-2H-pyran-2-yloxy)tetrahydro-2H-pyran-2-ylamino)-1,6,8,14a-tetrahydroxy-6a-methoxy-3-methyl-7,9,12,14-tetraoxo-5,6,6a,7,9,12,14,14a-octahydrobenzo[a]tetracene-2-carboxylate] | 2 (≈ 2.33 µM) |
| CO[C@@H]1[C@@H](O)[C@@H](OC)C(NC2=CC(=O)c3c(cc4c(c3O)C(=O)[C@]3(OC)[C@H](O)Cc5cc(C)c(C(=O)NCc6ccc(Cl)cc6)c(O)c5[C@]3(O)C4=O)C2=O)O[C@H]1C (mixture of isomers) [Example 27, (6R,6aS,14aR)—N-(4-Chlorobenzyl)-1,6,8,14a-tetrahydroxy-11-((3R,4R,5R,6S)-4-hydroxy-3,5-dimethoxy-6-methyltetrahydro-2H-pyran-2-ylamino)-6a-methoxy-3-methyl-7,9,12,14-tetraoxo-5,6,6a,7,9,12,14,14a-octahydrobenzo[a]tetracene-2-carboxamide] | 8 (≈ 9.91 µM) |
| COC(=O)c1c(C)cc2c(c1O)[C@]1(O)C(=O)c3cc4c(c(O)c3C(=O)[C@]1(OC)[C@H](O)C2)/C(=N/CCCO)C=C(N[C@H]1O[C@@H](C)[C@H](OC)[C@@H](O)[C@H]1OC)C4=O [Example 48, (6R,6aS,14aR,E)-Methyl 1,6,8,14a-tetrahydroxy-11-((2S,3R,4R,5R,6S)-4-hydroxy-3,5-dimethoxy-6-methyltetrahydro-2H-pyran-2-ylamino)-9-(3-hydroxypropylimino)-6a-methoxy-3-methyl-7,12,14-trioxo-5,6,6a,7,9,12,14,14a-octahydrobenzo[a]tetracene-2-carboxylate] | 1 (≈ 1.32 µM) |
